Test results reported in patent US8153787B2 (priority 2005, dated 2012).
Converted amounts (≈) assume the structure as drawn. Where two headings read alike, the source gives them in different places.

What was measured:
[1] = tested on: Varicella-Zoster Virus (VZV); assay: microbe, parasite or virus in culture; format: cell-based; conditions: Human alphaherpesvirus 3, HEL
in vitro [2] = conditions: human, […]
[3] = tested on: Human Cytomegalovirus (HCMV); assay: microbe, parasite or virus in culture; format: cell-based
Vaccinia virus [4] = assay: microbe, parasite or virus in culture; format: cell-based; conditions: Orthopoxvirus vaccinia, read-out: EC50 vaccinia virus
in vitro [5] = conditions: human
[6] = tested on: primate polyomavirus (SV40); assay: microbe, parasite or virus in culture; format: cell-based, simian polyomavirus SV40; conditions: for EC50: Polyomavirus sp., BSC-1, in Primates
in vitro [7] = conditions: mouse
murine polyomavirus = assay: microbe, parasite or virus in culture; format: cell-based; conditions: for EC50: Alphapolyomavirus muris, UC1, UC1B
in vitro [8] = conditions: African green monkey
HSB-2 cells = conditions: human
[9] = tested on: herpes simplex virus type 1 (HSV-1); assay: microbe, parasite or virus in culture; format: cell-based; conditions: Human alphaherpesvirus 1, HEL, read-out: EC50 HSV-1 (Kos strain)
Orf virus (NZ2) = assay: microbe, parasite or virus in culture; format: cell-based; conditions: Orf virus, HEL, read-out: EC50 Orf virus NZ2
Cowpox virus (Brighton) = assay: microbe, parasite or virus in culture; format: cell-based; conditions: Cowpox virus, HEL, read-out: EC50 Cowpox virus Brighton
Vaccinia virus [10] = assay: organism not typed; format: cell-based; conditions: HEL
[11] = tested on: herpes simplex virus type 2 (HSV-2); assay: microbe, parasite or virus in culture; format: cell-based; conditions: Human alphaherpesvirus 2, HEL, read-out: EC50 HSV-2 (G strain)
[12] = read-out: EC50 VZV OKA strain (HEL cells)
[13] = Human betaherpesvirus 5, AD169, HEL, read-out: EC50 HCMV AD-169 strain (HEL cells)
[14] = Human betaherpesvirus 5, HEL, read-out: EC50 HCMV Davis strain (HEL cells)
[15] = read-out: antiviral activity (EC50) SV40 PML-1 strain EK
[16] = read-out: antiviral activity (EC50) SV40 PML-2 strain DAR
[17] = read-out: antiviral activity (EC50) SV40 strain A2895
[18] = read-out: antiviral activity (EC50) 2PTA2
[19] = read-out: antiviral activity (EC50) LID-1
[20] = read-out: antiviral activity (EC50) MN/RDE Toronto
[21] = read-out: antiviral activity (EC50) PTA

Structure (SMILES) | EC50 [1, 12] [ng/mL] | CC50 (in vitro [2]) [ng/mL] | EC50 [3, 13] [ng/mL] | EC50 [3, 14] [ng/mL] | selectivity index SV40 PML-1 strain EK [6] | selectivity index SV40 PML-2 strain DAR [6] | selectivity index SV40 strain A2895 [6] | EC50 [6, 15] [ng/mL] | EC50 [6, 16] [ng/mL] | EC50 [6, 17] [ng/mL] | CC50 (in vitro [7]) [ng/mL] | selectivity index 2PTA2 (murine polyomavirus) | selectivity index LID-1 (murine polyomavirus) | selectivity index MN/RDE Toronto (murine polyomavirus) | selectivity index PTA (murine polyomavirus) | EC50 (murine polyomavirus; [18]) [ng/mL] | EC50 (murine polyomavirus; [19]) [ng/mL] | EC50 (murine polyomavirus; [20]) [ng/mL] | EC50 (murine polyomavirus; [21]) [ng/mL] | CC50 (in vitro [8]) [ng/mL] | also measured
CCCCCCCCCCCCCCCCCCOP1(=O)CO[C@@H](Cn2cnc(N)nc2=O)CO1 (stereo partly drawn) [Compound 15, octadecyl ester of 1-{[(5S)-2-hydroxy-2-oxido-1,4,2-dioxaphosphinan-5-yl]methyl}-5-azacytosine] | 63 (≈ 122 nM) | > 100000 | 3.7 (≈ 7.19 nM) | 1.4 (≈ 2.72 nM) | – | – | – | – | – | – | – | – | – | – | – | – | – | – | – | – | –
NC1=NC(=O)N(C[C@@H](CO)OCP(=O)(O)O)CN1 [5,6-dihydro derivative of HPMP-5-azaC, (S)-1-[3-Hydroxy-2-(phosphonomethoxy)propyl]-5,6-dihydro-5-azacytosine] | – | – | – | – | – | – | – | – | – | – | – | – | – | – | – | – | – | – | – | – | EC50 (Vaccinia virus [4]): 38000 ng/mL (≈ 135000 nM); CC50 (in vitro [5]): 120000 ng/mL (≈ 425000 nM)
NC(N)=NC(=O)NC[C@@H](CO)OCP(=O)(O)O [Compound 10, 2-{[(2S)-3-Hydroxy-2-(Phosphonomethoxy)propyl]carbamoyl}guanidine] | – | – | – | – | 1 | 1 | 1 | > 200000 | > 200000 | > 200000 | > 200000 | 1 | 1 | 1 | 1 | > 200000 | > 200000 | > 200000 | > 200000 | > 200000 | Toxicity MCC (microscopy), HSB-2 cells (HSB-2 cells): >200 µg/mL
CCCCCCCCCCCCCCCCOCCOP1(=O)CO[C@@H](Cn2cnc(N)nc2=O)CO1 (stereo partly drawn) [Compound 12, hexadecyloxyethyl ester of 1-{[(5S)-2-Hydroxy-2-oxido-1,4,2-dioxaphosphinan-5-yl]methyl}-5-azacytosine] | < 0.02 | 6000 (≈ 11300 nM) | < 0.02 | < 0.02 | 57.6 | 38.7 | 44.5 | 150 (≈ 283 nM) | 180 (≈ 339 nM) | 160 (≈ 302 nM) | 10000 (≈ 18800 nM) | 33.8 | 21.3 | 34.9 | 35.6 | 300 (≈ 565 nM) | 470 (≈ 886 nM) | 290 (≈ 547 nM) | 280 (≈ 528 nM) | 7100 (≈ 13400 nM) | EC50 [9]: 72 ng/mL (≈ 136 nM); EC50 ([1]; read-out: EC50 VZV 07/1 strain (HEL cells)): < 0.02 ng/mL; EC50 ([1]; read-out: EC50 VZV YS strain (HEL cells)): < 0.02 ng/mL; EC50 ([1]; read-out: EC50 VZV YS-R strain (HEL cells)): < 0.02 ng/mL; EC50 (Orf virus (NZ2)): < 32 ng/mL; EC50 (Cowpox virus (Brighton)): < 32 ng/mL; EC50 (Vaccinia virus [10]; read-out: EC50 Vaccinia Virus Lister): < 32 ng/mL; EC50 (Vaccinia virus [10]; Orthopoxvirus vaccinia, read-out: EC50 Vaccinia Virus Copenhagen): < 32 ng/mL; EC50 (Vaccinia virus [10]; Orthopoxvirus vaccinia, read-out: EC50 Vaccinia Virus Lederle): < 32 ng/mL; EC50 (Vaccinia virus [10]; Orthopoxvirus vaccinia, read-out: EC50 Vaccinia Virus WR): 72 ng/mL (≈ 136 nM); EC50 [11]: 360 ng/mL (≈ 678 nM)
